Assay results from PubChem BioAssay (NCI).
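Growth conditions: 96-well plates. Treatment: test compound, 48 hours, 5 concentrations. Analysis: linear interpolation between bracketing concentrations; unreached endpoints set to highest concentration. Definition used: TGI = concentration required for complete inhibition of growth.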

Experiments:
Assay in all cases: DTP human tumour cell line panel, 48 h
[1] = test system: SK-OV-3 ovarian
[2] = test system: MALME-3M melanoma
[3] = test system: BT-549 breast
[4] = test system: MCF7 breast
[5] = test system: EKVX NSCLC
[6] = test system: LOX IMVI melanoma
[7] = test system: SW-620 colon
[8] = test system: HL-60(TB) leukemia
[9] = test system: MDA-MB-231 breast
[10] = test system: M14 melanoma
[11] = test system: UACC-257 melanoma
[12] = test system: SN12C renal
[13] = test system: SR leukemia
[14] = test system: MOLT-4 leukemia
[15] = test system: NCI-H460 lung
[16] = test system: HCC-2998 colon

SMILES	TGI [1]	TGI [2]	TGI [3]	TGI [4]	TGI [5]	TGI [6]	TGI [7]	TGI [8]	TGI [9]	TGI [10]	TGI [11]	TGI [12]	TGI [13]	TGI [14]	TGI [15]	TGI [16]
CCOc1ccc(N2C(=O)NC3(c4ccccc4)N(C)C(=O)N(C)C23c2ccccc2)cc1 (centres undefined)	> 100 µM	> 100 µM	> 100 µM	> 100 µM	> 100 µM	> 100 µM	> 100 µM	> 100 µM	> 100 µM	> 100 µM	> 100 µM	> 100 µM	> 100 µM	> 100 µM	–	–
C=C1C2C[C@@H]3O[C@H]4C[C@H]5O[C@@]6(C[C@@H]7O[C@]8(C[C@H](C)[C@@H]9O[C@@H]%10CC(C=O)O[C@@H]%10C[C@@H]9O8)C[C@H](C)[C@@H]7O6)C[C@H]5O[C@H]4[C@H](C)[C@H]3OC(=O)C[C@H]3CC[C@@H]4OC5[C@H]6O[C@]7(CC[C@H]8CC(=C)[C@H](CC[C@@H](C[C@H]1C)O2)O8)CC6O[C@@H]5[C@@H](O7)[C@H]4O3 (some centres undefined)	> 1 µM	–	< 0.0001 µM	> 1 µM	> 1 µM	–	> 1 µM	–	> 0.218 µM	> 1 µM	–	> 1 µM	> 1 µM	> 1 µM	> 1 µM	> 1 µM
CSCCC(NC(=O)Cc1ccc(C(=O)c2ccccc2)cc1)C(=O)N1CCN(CCCCN2c3ccccc3Sc3cc(N=[N+]=[N-])ccc32)CC1 (centres undefined)	> 100 µM	> 100 µM	> 100 µM	> 100 µM	> 100 µM	> 100 µM	–	> 100 µM	> 100 µM	–	> 100 µM	> 100 µM	–	> 100 µM	> 100 µM	> 100 µM
O=C(NC(=O)c1ccccc1)OC(c1ccccc1)C1CO1 (centres undefined)	> 100 µM	> 100 µM	> 100 µM	> 100 µM	> 100 µM	> 100 µM	> 100 µM	> 100 µM	> 100 µM	> 100 µM	> 100 µM	> 100 µM	–	> 100 µM	> 100 µM	> 100 µM
CN1CN(c2ccccc2)C2(CCN(C3Nc4ccccc4O3)CC2)C1=O (centres undefined)	48.1 µM	38 µM	37.3 µM	38.6 µM	–	26.8 µM	> 100 µM	43.5 µM	44.6 µM	46.2 µM	33.7 µM	34.7 µM	> 100 µM	92.2 µM	43.9 µM	–
Cc1occc1C(=S)Nc1ccc(Cl)c(C(=O)OCC(C)C)c1	42.4 µM	36.2 µM	33.2 µM	33.3 µM	31 µM	28.6 µM	45.8 µM	79.5 µM	31.4 µM	65 µM	40.2 µM	36.3 µM	–	44.8 µM	44.9 µM	35.3 µM
N#CC(c1ccccc1)N(CCc1ccccc1)C(=O)c1ccc(C(=O)N(CCc2ccccc2)C(C#N)c2ccccc2)cc1 (centres undefined)	> 100 µM	39.3 µM	44.3 µM	> 100 µM	> 100 µM	37 µM	58.7 µM	> 100 µM	76.1 µM	79 µM	35.3 µM	38.3 µM	–	–	37 µM	29.1 µM
Cc1cccc2c(N)c3cccc(C(=O)NCC[N+](C)(C)Cc4ccc(S(C)(=O)=O)cc4)c3nc12	> 100 µM	> 100 µM	> 100 µM	> 100 µM	> 100 µM	> 100 µM	> 100 µM	38.6 µM	> 100 µM	> 100 µM	> 100 µM	> 100 µM	–	–	> 100 µM	> 100 µM
Cc1c2oc3c(C)cnc(C(=O)NC4C(=O)NC(C(C)C)C(=O)N5CCCC5C(=O)N(C)CC(=O)N(C)C(C(C)C)C(=O)OC4C)c3nc-2c(C(=O)NC2C(=O)NC(C(C)C)C(=O)N3CCCC3C(=O)N(C)CC(=O)N(C)C(C(C)C)C(=O)OC2C)c(N)c1=O (centres undefined)	61.5 µM	16.6 µM	33.5 µM	> 75 µM	> 75 µM	10.3 µM	> 53.3 µM	> 26 µM	41.3 µM	16.8 µM	33.8 µM	> 70.1 µM	–	0.675 µM	> 24.6 µM	15.7 µM
Cc1ccc(N=NN(C)C(C)C(O)Cc2ccccc2)cc1 (centres undefined)	> 100 µM	> 100 µM	> 100 µM	> 100 µM	> 100 µM	–	> 100 µM	> 100 µM	> 100 µM	> 100 µM	> 100 µM	> 100 µM	–	> 100 µM	> 100 µM	> 100 µM
CC(=O)Nc1ncc2c(n1)-c1ccccc1OC2c1ccccc1 (centres undefined)	> 100 µM	–	> 100 µM	> 100 µM	> 100 µM	> 100 µM	> 100 µM	> 100 µM	75.3 µM	> 100 µM	> 100 µM	> 100 µM	> 100 µM	> 100 µM	> 100 µM	–
